From patent publication US6376508B1, “Treatments for spinal muscular atrophy” (priority 2000, dated 2002)
“Also recorded” adds a separate entry of the source.

Assays:
exon 7 of the SMN2 gene = assay: RT-PCR analysis of SMN exon 7 expression in EBV transformed lymphoid cell lines of SMA patients; assay type: cell-based, human
[1] = test system: exon 7-containing SMN protein; assay: Western-blot analysis (H2 and H7 antibodies) of SMN protein in SMA patient lymphoid cell lines; assay type: cell-based, human; settings: cytosolic and nuclear fractions, 4 hours stimulation, 0.5 ng/ml to 5 μg/ml
Method: Lymphoid cells were isolated from SMA patients with different degrees of severity. Whole blood was drawn from the patients, heparinized, then diluted 1:1 with PBS (phosphate buffered saline). The diluted sample was layered on a Ficoll-Hypaque gradient, and centrifuge at 2500 rpm for 30 minutes at room temperature. The buffy coat was collected from the centrifuged sample, washed twice with 5 ml PBS, collected, and resuspended in 5 ml RPMI medium, 0.5 ml Epstein-Barr virus (EBV stock), 50 μl PHA, and 50 μl of cyclosporine (0.2 mg/ml). The virus-treated sample was mixed well and transferred into a T-flask for incubation at 37° C. in a 5% CO2 incubator for 3 weeks.
Rabbits were immunized with synthetic peptides containing either human SMN amino acids 279-288 from exon 7 or amino acids 72-84 from exon 2. Specific antibodies (H7 and H2 batches) were purified from rabbit crude sera with an EAH-sepharose 4B column (Pharmacia) according to the manufacturer's instructions.
Protein samples, prepared from treated and untreated SMA lymphoid cells, were loaded on a 5% polyacrylamide stacking gel above a 12% separating gel, and the gel was run with a discontinuous buffer using Laemmli's method. […] The secondary antibody was detected with a 1.5% solution of 5-bromo-4-chloro-3-indoyl phosphate and 3% nitro blue tetrazolium in a developing buffer (100 mM NaCl, 5 mM MgCl2, 100 mM Tris.HCl, pH 9.5). […]

[2] = test system: SMA-like mice (hSMN2 Smn-/-); assay: Treatment of types 2 and 3 SMA-like mice via drinking water; assay type: in vivo, mouse
Source text: To generate hSMN2 Smn^−/− mice, hSMN2 Smn^+/− mice were crossed to Smn^+/− mice. Progeny lacking the murine SMN locus were identified by genotyping. The presence of the hSMN2 transgene was also confirmed.
These mice frequently developed chronic necrosis of the tail tip, muscular atrophy, subcutaneous edema in hindlimbs, and paralysis of hindlimbs. Type 3 mice survived and bred normally. The mild symptoms of these mice include short but enlarged tails.
The effect of sodium butyrate on the symptoms of SMA-like mice were investigated. Sodium butyrate was administered to ten SMA-like mice with type 2 symptoms and ten SMA-like mice with type 3 symptoms. These mice were identified at birth by genotype and phenotype. Thereafter, their drinking water was supplemented with a 0.8 μg/ml or an 8 μg/ml solution of sodium butyrate. The drinking water was available ad libitum. The amount of sodium butyrate taken by SMA-like mice was estimated to be approximate 4-80 μg/day. The survival time of sodium butyrate-treated type 2 SMA-like mice was longer, about 4 to 5 days longer on average, than untreated mice.
The effect of sodium butyrate administration on the tail phenotype of SMA-like mice was also monitored. The tails of untreated types 2 and 3 SMA-like mice have decreased diameter of muscle fibers, atrophy of muscle bundles, group atrophy and subcutaneous edema (Hsieh-Li et al. (2000) supra). […] The tail of a treated mouse was about 5 cm long on average, whereas the tail of an untreated mouse was about 1 cm long. Remarkably, the average length of the tail of treated mice, 5 cm, is close to the average length for wild-type mice, 6 cm.

[3] = test system: SMA-like mice (progeny of hSMN2 Smn+/- intercross); assay: In utero treatment of SMA-like mice (pregnant mice from hSMN2 Smn+/- intercross); assay type: in vivo, mouse
Method: To evaluate the therapeutic effect of sodium butyrate for severely affected SMA mice, the test compound was administered to pregnant mice from an hSMN2 Smn^+/− intercross. The number mice born with SMA-like phenotypes were counted and classified according to type. In one case, 4-8 μg/day sodium butyrate was administered to pregnant mice from a hSMN2 Smn^+/− intercross ad libitum in their drinking water beginning from 15 day post-coitum until parturition (Table 1).

[4] = treated mothers, 4-8 μg/day from 15 day post-coitum until parturition (untreated 10%)
[5] = treated mothers, 4-8 μg/day from 15 day post-coitum until parturition, 294 total pups

CCCC(=O)[O-].[Na+] [sodium butyrate]
splicing of SMN2 transcripts (exon 7 of the SMN2 gene; RT-PCR, treated vs untreated cells): changed to include exon 7 | amount of exon 7-containing SMN mRNA (exon 7 of the SMN2 gene; lymphoid cells cultured with 5 ng/ml to 50 μg/ml): increased | time of greatest increase of exon 7-containing SMN mRNA after addition of the drug (exon 7 of the SMN2 gene; lymphoid cells, 5 ng/ml to 50 μg/ml): 4 h | level of full-length SMN mRNA transcript (exon 7 of the SMN2 gene; relative to untreated control, lymphoid cells from all three types of SMA patients): increased levels of full-length SMN transcript; also recorded: increase | amount of intact (exon 7-containing) SMN protein [1]: increase | tail histopathology relative to untreated SMA-like mice ([2]; treated SMA-like mice): fewer atrophied muscle bundles, less group atrophy, and reduced subcutaneous edema | frequency of chronic necrosis originating at the tip of the tail ([2]; treated SMA-like mice (untreated 50%)): 2% | tail length on average ([2]; treated type 3 SMA-like mice (untreated about 1 cm, wild-type 6 cm)): about 5 cm | survival time longer than untreated mice, on average ([2]; type 2 SMA-like mice, drinking water 0.8 or 8 μg/ml, approx. 4-80 μg/day): 4 to 5 days | tail phenotype ([2]; type 3 SMA-like mice): close to wild-type | exon 7-containing SMN protein levels in tissues ([2]; western blot and immunohistochemistry, multiple tissues including spinal cord motor neurons): elevated | symptoms of progeny from treated mothers vs progeny from untreated mothers ([3]; higher dose, 40-80 μg/day): milder symptoms | percent of pups with Type 2 symptoms ([3]; treated mothers, 4-8 μg/day from 15 day post-coitum until parturition (untreated 5%)): 7% | percent of pups with Type 1 symptoms [3, 4]: 7% | percent of pups with Type 3 symptoms [3, 4]: 16% | number of pups with Type 2 symptoms [3, 5]: 22 | number of pups with Type 3 symptoms [3, 5]: 48 | number of pups with Type 1 symptoms ([3]; treated mothers, 4-8 μg/day in drinking water from 15 day post-coitum until parturition, 294 total pups): 21
